Read-outs that look alike come from different tables or passages of the source. Starred links: 1 amine or outer side, 2 acyl side, 3 side chain; linkers in the order of their positions; H or OH if unused. Positions of bridges follow the written chain, without caps; N, C: chain ends. Non-standard residues stand in square brackets, D forms with d. Residues, ends and D or L forms follow the SMILES beside them. Adda = CO[C@@H](Cc1ccccc1)[C@@H](C)/C=C(C)/C=C/[C@H](N[*:1])[C@H](C)C(=O)[*:2]; dAsp(3S-Me) = C[C@H](C(=O)[*:3])[C@@H](N[*:1])C(=O)[*:2]; d(γGlu) = O=C(O)[C@@H](CCC(=O)[*:2])N[*:1]; NMeDha = C=C(NC)C(=O)O
Legend:
Akt = assay: Cell-free in vitro assay (3T3-L1 adipocyte PM/CYT/LDM fractions), Akt phosphorylation by phospho-Akt immunoblot; type: biochemical; details: for ability of phosphatidylinositol lipids to stimulate Thr308 and Ser473 phosphorylation of Akt: data not shown
PDK2 = PDK2 activity in in vitro reactions at different chloride concentrations; type: biochemical
[1] = 10 μM PIP3 added to CYT alone, non-insulin treated cells, 15 min at 37° C.
[2] = 10 μM PIP3 added to CYT and LDM, 15 min at 37° C.

Molecule: O[C@@H](CS)[C@@H](O)CS [DTT]
- signal for both Akt phosphorylation sites in reactions containing PM(+ins) (Akt; 15 min at 37° C.): appeared to inhibit the phospho-Akt signal in most cases

Molecule: C=C1C(=O)N[C@H](C)C(=O)N[C@@H](CC(C)C)C(=O)N[C@@H](C(=O)O)[C@H](C)C(=O)N[C@@H](CCCNC(=N)N)C(=O)N[C@@H](/C=C/C(C)=C/[C@H](C)[C@H](Cc2ccccc2)OC)[C@H](C)C(=O)N[C@@H](C(=O)O)CCC(=O)N1C [Microcystin, microcystin-LR] (R[Adda][d(γGlu)][NMeDha][dA]L[dAsp(3S-Me)]-OH; lactam N-7)
- control (basal) phospho-Akt signal in reactions containing PM(−ins) (Akt): elevated the basal signal only for the Ser473 site
- signal for both Akt phosphorylation sites in reactions containing PM(+ins) (Akt): increased the insulin-stimulated signal

Molecule: Cl [chloride]
- chloride concentration that completely inhibits PDK2 activity (PDK2): > 100 mM
- PIP3-induced Ser473 phosphorylation (Akt): completely inhibited
- insulin-stimulated phosphorylation of both Thr308 and Ser473 (Akt; 145 mM chloride (140 mM KCl/5 mM NaCl or 145 mM NaCl), PM and CYT): almost completely suppressed
- PIP3-stimulated Thr308 phosphorylation (Akt; high chloride (145 mM), 10 μM PIP3, PM(−ins) and CYT): severely inhibited

Molecule: phosphatidylinositol(3,4)P2 [PI (3,4)P2]
- ability of phosphatidylinositol lipids to stimulate Thr308 and Ser473 phosphorylation of Akt (Akt): could stimulate

Molecule: phosphatidylinositol(3,4,5)P3 [PIP3]
- Ser473 phosphorylation of Akt (Akt; [1]): occurred only marginally
- Thr308 phosphorylation of Akt (Akt; [1]): efficient phosphorylation
- Ser473 signal (Akt; [2]): robust
- Thr308 signal relative to reaction containing CYT alone (Akt; [2]): not further enhanced
- ability of phosphatidylinositol lipids to stimulate Thr308 and Ser473 phosphorylation of Akt (Akt): could stimulate

— patent US20050014682A1 (priority 2003, published 2005)
